One molecule from patent US20240067668A1, “HETEROARYL DERIVATIVE COMPOUND AND USE THEREOF” (VORONOI INC., priority 2020, published 2024) can be followed below.

One experiment concerns the target T1, EGFR (E746-A750del) (Homo sapiens, UniProt P00533, DEL746-750).
T1 construct: purchased DiscoverX
Briefly: scanMAX Kinase analysis panel (DiscoverX), control percentage. The note with it: 1 μM in DMSO. Type of experiment: binding. Here is the method: (§1) The following experiments were performed to evaluate the inhibitory activity of compounds according to the present invention against various enzymes. Specifically, with respect to the compound of Example 2 selected from the Example Compounds of the present invention, the enzyme (kinase) selectivity was measured by requesting DiscoverX company, and the experiment was conducted using a scanMAX™ Kinase analysis panel. Here, the concentration of the drug treated with the enzyme was 1 μM in DMSO, and the control percentage (% control) was determined by the following Equation 1.
(§2) (Example Compound−positive control)/(negative control−positive control)×100 [Equation 1]
(§3) Here, the positive control indicates a compound showing the control percentage of 0%, and the negative control indicates DMSO showing the control percentage of 100%. Further, regarding the enzyme selectivity of the present invention, when the control percentage for each enzyme was <30% (i.e., less than 30%), the compound was determined to have the activity against the corresponding enzyme.

Another experiment concerns the target T2, EGFR (G719C) (Homo sapiens, UniProt P00533, G719C).
T2 construct: purchased DiscoverX
Described as above. Type of experiment: binding. The note with it: 1 μM in DMSO. The protocol:
as §1, §2, §3

The target of the next experiment is T3, EGFR (G719S) (Homo sapiens, UniProt P00533, G719S).
T3 construct: purchased DiscoverX
Described as above. Type of experiment: binding. The note with it: 1 μM in DMSO. The protocol: as §1, §2, §3

The target in the next experiment is T4, EGFR (Homo sapiens, UniProt P00533).
T4 construct: purchased DiscoverX
Described as above. Type of experiment: binding. The note with it: 1 μM in DMSO. The protocol: as §1, §2, §3

For experiment [1], the target named is T5, EGFR (L747-E749del, A750P) (Homo sapiens, UniProt P00533, A750P/DEL747-749).
T5 construct: purchased DiscoverX
The experiment is described as above. The format is binding. The note with it: 1 μM in DMSO. Here is the method: as §1, §2, §3

Experiment [2] concerns the target T6, EGFR (L747-S752del, P753S) (Homo sapiens, UniProt P00533, DEL747-752/P753S).
T6 construct: purchased DiscoverX
Described as above. Type of experiment: binding. The note with it: 1 μM in DMSO. Here is the method:
as §1, §2, §3

In experiment [3] the test system is EGFR (L747-T751del, Sins). The experiment is described as above. The note with it: 1 μM in DMSO. The format is binding. The protocol:
as §1, §2, §3

For the next experiment, the target named is T7, EGFR (L858R) (Homo sapiens, UniProt P00533, L858R).
T7 construct: purchased DiscoverX
The description is as above. Type of experiment: binding. The note with it: 1 μM in DMSO. Here is the method:
as §1, §2, §3

The target of a further experiment is T8, EGFR (L858R, T790M) (Homo sapiens, UniProt P00533, L858R/T790M).
T8 construct: purchased DiscoverX
T8 sequence (P00533 25-1210 T790M/L858R): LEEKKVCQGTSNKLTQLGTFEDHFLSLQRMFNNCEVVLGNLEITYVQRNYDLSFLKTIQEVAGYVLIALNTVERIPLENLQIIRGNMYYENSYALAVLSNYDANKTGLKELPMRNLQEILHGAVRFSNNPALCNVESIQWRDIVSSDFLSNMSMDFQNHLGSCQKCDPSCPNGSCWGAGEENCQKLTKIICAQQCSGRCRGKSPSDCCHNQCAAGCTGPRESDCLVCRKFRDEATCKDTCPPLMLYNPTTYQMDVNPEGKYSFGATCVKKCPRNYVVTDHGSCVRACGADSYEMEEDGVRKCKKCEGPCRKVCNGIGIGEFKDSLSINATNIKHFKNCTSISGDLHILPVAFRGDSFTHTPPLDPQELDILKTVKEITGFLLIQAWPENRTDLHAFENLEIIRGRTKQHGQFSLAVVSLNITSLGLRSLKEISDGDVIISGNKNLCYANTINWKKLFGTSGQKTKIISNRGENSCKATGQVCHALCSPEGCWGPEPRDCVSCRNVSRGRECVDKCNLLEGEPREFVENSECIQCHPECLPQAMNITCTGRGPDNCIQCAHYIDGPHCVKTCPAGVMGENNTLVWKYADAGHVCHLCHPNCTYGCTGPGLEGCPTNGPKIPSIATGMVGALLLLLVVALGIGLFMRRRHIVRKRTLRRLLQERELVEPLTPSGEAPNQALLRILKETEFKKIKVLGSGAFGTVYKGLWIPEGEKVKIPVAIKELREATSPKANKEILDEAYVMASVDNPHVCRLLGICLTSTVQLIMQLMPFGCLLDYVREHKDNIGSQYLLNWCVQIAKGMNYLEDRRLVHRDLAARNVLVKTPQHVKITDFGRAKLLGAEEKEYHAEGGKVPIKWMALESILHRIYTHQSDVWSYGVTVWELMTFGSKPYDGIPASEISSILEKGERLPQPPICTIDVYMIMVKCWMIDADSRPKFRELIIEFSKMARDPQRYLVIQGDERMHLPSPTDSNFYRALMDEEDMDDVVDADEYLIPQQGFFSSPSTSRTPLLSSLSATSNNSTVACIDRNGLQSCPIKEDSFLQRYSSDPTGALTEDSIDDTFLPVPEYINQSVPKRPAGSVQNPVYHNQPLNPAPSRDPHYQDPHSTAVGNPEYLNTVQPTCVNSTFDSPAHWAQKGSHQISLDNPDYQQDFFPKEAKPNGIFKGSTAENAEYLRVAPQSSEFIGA
The description is as above. Type of experiment: binding. The note with it: 1 μM in DMSO. The protocol: as §1, §2, §3

The next experiment addresses T9, EGFR (L861Q) (Homo sapiens, UniProt P00533, L861Q).
T9 construct: purchased DiscoverX
The experiment is described as above. Type of experiment: binding. The note with it: 1 μM in DMSO. The protocol:
as §1, §2, §3

In the next experiment the target is T10, EGFR (T790M) (Homo sapiens, UniProt P00533, T790M).
T10 construct: purchased DiscoverX
Described as above. The note with it: 1 μM in DMSO. Type of experiment: binding. Here is the method: as §1, §2, §3

The target in a further experiment is T11, EGFR(S752-I759del) (Homo sapiens, UniProt P00533, DEL752-759).
T11 construct: purchased DiscoverX
T11 sequence (P00533 with tags, fused parts or gaps DEL752-759): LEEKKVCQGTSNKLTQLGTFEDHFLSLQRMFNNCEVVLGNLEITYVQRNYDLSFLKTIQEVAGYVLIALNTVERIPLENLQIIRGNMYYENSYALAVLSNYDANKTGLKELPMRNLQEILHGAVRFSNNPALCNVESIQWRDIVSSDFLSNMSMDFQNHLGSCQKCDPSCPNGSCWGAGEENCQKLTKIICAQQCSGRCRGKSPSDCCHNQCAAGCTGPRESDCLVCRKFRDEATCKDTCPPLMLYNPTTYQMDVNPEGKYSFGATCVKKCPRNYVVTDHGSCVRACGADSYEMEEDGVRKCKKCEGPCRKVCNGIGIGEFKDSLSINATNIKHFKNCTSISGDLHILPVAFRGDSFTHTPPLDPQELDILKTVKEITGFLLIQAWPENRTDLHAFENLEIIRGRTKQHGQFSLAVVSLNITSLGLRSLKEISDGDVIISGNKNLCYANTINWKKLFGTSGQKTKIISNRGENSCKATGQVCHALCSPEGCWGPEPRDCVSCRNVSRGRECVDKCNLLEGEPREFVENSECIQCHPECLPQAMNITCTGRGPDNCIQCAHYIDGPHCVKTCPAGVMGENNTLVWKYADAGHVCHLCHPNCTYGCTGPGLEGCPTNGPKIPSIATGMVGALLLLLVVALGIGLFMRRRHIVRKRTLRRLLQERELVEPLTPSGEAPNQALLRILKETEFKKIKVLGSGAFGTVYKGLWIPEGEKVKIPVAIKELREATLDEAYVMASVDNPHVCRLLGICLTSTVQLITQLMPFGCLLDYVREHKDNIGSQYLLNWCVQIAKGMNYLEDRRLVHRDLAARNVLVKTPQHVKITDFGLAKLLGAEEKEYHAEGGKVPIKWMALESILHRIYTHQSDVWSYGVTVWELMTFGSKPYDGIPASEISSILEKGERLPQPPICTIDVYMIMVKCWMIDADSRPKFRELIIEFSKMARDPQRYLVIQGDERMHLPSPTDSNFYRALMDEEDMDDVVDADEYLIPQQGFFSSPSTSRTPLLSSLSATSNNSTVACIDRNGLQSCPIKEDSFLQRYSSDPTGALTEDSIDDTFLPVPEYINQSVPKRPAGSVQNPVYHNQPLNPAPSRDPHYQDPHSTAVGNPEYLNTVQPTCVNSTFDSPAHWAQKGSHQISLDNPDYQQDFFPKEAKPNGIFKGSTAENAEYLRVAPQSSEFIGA
Described as above. The format is binding. The note with it: 1 μM in DMSO. The protocol: as §1, §2, §3

The next experiment addresses EGFR Del19/T790M/C797S (Homo sapiens, UniProt P00533, C797S/T790M, form not given). Briefly: Enzyme IC50, EGFR Del19/T790M/C797S. Type of experiment: biochemical.
For experiment [4], the system named is BaF3-EGFR (Del19/T790M/C797S) cells. The experiment can be described thus: Inhibitory activity on Ba/F3 cell proliferation (CellTiter-Glo, 72 hours). Type of experiment: cell-based. The note with it: Ba/F3 cells expressing EGFR Del19/T790M/C797S. The method in brief: (§4)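 Ba/F3 cells expressing wild-type EGFR or EGFR Del19/T790M/C797S, 3×10^3 per well, exposed 72 h at 37 °C to compound at 12 threefold dilutions, 0.00005-10 μM final. Viability by CellTiter-Glo 2.0; GI50 derived from growth relative to DMSO-treated cells.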
On the technique in general: Cellular ATP, detected with luciferase, serves as a proxy for viable cell number.

The test system of a further experiment is BaF3-EGFR (WT) cells. The experiment is described as above. Type of experiment: cell-based. The note with it: Ba/F3 cells expressing EGFR WT. Summed up:
as §4

Structures are written as SMILES.

T9 sequence (P00533 25-1210 L861Q): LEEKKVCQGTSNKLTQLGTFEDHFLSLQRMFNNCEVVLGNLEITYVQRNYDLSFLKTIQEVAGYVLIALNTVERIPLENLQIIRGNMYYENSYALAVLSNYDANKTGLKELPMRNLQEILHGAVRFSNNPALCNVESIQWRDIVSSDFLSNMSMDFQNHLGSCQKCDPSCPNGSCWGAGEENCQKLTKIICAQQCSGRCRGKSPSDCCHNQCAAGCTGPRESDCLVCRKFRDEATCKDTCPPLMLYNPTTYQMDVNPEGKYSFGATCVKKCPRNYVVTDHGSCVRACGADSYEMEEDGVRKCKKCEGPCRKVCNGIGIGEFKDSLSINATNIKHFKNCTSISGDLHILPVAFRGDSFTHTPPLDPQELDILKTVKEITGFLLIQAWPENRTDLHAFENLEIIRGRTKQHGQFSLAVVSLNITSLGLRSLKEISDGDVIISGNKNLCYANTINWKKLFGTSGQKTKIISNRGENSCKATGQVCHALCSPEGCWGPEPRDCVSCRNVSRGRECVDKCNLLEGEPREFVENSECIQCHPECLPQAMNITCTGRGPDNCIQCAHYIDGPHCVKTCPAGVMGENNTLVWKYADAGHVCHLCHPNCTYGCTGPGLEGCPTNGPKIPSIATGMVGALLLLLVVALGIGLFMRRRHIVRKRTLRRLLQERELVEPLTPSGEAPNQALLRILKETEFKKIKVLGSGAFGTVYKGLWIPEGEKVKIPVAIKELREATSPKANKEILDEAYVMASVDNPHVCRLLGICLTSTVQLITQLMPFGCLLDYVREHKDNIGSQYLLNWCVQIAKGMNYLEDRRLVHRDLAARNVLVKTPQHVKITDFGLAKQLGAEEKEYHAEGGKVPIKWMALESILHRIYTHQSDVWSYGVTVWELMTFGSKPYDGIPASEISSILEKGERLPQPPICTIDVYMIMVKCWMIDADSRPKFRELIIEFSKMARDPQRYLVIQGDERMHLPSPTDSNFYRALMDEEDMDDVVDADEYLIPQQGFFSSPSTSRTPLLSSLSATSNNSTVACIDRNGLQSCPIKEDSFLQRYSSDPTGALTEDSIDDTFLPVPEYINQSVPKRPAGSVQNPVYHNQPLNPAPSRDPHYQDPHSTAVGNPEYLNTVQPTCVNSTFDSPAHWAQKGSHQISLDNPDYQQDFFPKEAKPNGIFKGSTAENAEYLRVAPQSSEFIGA
T1 sequence (P00533 with tags, fused parts or gaps DEL746-750): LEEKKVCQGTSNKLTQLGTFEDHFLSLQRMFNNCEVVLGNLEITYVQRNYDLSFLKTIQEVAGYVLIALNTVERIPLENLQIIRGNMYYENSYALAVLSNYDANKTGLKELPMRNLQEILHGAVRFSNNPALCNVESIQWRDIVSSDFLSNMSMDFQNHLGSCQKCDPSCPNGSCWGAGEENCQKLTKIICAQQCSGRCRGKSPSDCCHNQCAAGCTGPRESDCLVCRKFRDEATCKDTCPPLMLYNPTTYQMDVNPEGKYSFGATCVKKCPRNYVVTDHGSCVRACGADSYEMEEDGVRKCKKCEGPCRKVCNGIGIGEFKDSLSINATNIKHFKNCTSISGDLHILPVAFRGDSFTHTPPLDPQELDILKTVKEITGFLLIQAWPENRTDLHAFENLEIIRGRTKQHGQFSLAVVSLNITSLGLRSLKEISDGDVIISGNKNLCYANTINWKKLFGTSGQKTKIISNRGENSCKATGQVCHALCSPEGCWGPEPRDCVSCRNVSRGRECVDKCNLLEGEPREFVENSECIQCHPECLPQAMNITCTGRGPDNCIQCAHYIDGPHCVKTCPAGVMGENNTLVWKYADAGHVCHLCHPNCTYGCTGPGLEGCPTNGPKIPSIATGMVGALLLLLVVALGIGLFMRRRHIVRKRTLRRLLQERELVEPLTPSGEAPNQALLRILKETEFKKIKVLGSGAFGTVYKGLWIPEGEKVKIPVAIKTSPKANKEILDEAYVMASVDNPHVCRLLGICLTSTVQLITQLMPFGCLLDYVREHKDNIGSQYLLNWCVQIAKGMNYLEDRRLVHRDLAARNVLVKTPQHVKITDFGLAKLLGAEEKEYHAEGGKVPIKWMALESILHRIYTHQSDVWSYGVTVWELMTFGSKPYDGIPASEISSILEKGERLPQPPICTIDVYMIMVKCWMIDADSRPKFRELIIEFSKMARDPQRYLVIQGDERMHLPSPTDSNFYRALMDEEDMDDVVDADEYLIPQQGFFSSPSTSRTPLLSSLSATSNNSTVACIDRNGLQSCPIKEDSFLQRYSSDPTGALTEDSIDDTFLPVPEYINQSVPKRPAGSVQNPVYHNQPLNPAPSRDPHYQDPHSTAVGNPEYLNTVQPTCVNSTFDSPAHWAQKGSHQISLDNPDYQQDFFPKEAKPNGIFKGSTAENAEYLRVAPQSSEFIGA

In the case of `COc1cc(N2CCC(N3CCN(C)CC3)CC2)c(C)cc1Nc1nc(Nc2ccc3nccnc3c2P(C)(C)=O)c2cc[nH]c2n1` [Example 54, (6-((2-((2-methoxy-5-methyl-4-(4-(4-methyl-piperazin-1-yl)piperidin-1-yl)phenyl)amino)-7H-pyrrolo[2,3-d]pyrimidin-4-yl)amino)quinoxalin-5-yl)dimethyl-phosphine oxide], the remaining binding at 1 µM (at EGFR (E746-A750del); on EGFR (G719C); at EGFR (G719S); at EGFR; in [1]; in experiment [2]) was < 30% in each case. In addition, the remaining binding at 1 µM on EGFR (L858R) is < 30%; on EGFR (L858R, T790M), < 30%; at EGFR (L861Q), < 30%; on EGFR (T790M), < 30%; on EGFR(S752-I759del) it was < 30%. Further, in experiment [3], the “control percentage (% control)” value is recorded as < 30%. For the same molecule, the IC50 against EGFR Del19/T790M/C797S was ≤ 0.05 µM. Besides, the concentration for 50% growth inhibition (GI50) in [4] is ≤ 0.05 µM; with BaF3-EGFR (WT) cells it was > 0.1 µM.

As usually defined, the IC50 is the concentration at which inhibition is half-maximal. A higher IC50 goes with weaker potency. In general, GI50 refers to the concentration giving 50% growth inhibition. Low readings indicate more potent growth inhibition, high ones less potent growth inhibition.
